Assay results from patent US10988474B2, “Compounds acting at multiple prostaglandin receptors giving a general anti-inflammatory response” (ALLERGAN, INC., priority 2011, dated 2021).

Legend:
Type in all cases: cell-based
[1] = target: T1, human prostanoid EP3 receptor (Homo sapiens, UniProt P43115); assay: FLIPR Ca2+ signaling PG antagonist assay, EP3 stable cell line; conditions: HEK-293 EBNA cells, human recombinant EP3 with chimeric Gqi; standard agonist PGE2
T1 construct: expressed in transfected cells
T1 sequence (P43115 1-390): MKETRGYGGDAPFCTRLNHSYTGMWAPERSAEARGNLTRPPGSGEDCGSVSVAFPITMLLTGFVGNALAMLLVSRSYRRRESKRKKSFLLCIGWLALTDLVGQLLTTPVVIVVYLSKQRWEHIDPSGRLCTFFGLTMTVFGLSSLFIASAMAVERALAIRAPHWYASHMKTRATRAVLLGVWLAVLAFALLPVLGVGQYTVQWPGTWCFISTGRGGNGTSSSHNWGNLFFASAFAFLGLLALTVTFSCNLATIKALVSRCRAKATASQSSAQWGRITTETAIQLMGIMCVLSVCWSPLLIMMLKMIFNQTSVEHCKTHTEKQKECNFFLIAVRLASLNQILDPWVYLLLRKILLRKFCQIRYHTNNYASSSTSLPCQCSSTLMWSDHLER
In short: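 Stable HEK-293 EBNA lines (DP1 with chimeric Gqs, EP3 with Gqi, EP1 and FP without exogenous G protein) were Fluo-4AM-loaded and pretreated 4.5 min at 37 °C with compound (0.1–30 μM). Agonist (BW 245C for DP1, PGE2 for EP1/EP3, 17-phenyl-PGF2α for FP) was then added at 10^−11–10^−5 M. Peak Ca2+ fluorescence was taken relative to agonist at 10^−6 M.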

[2] = target: T2, human prostanoid TP receptor (Homo sapiens, UniProt P21731); assay: FLIPR Ca2+ signaling PG antagonist assay, TP stable cell line; conditions: HEK-293 EBNA cells, human recombinant TP, no exogenous G-protein; standard agonist U-46619
T2 construct: expressed in transfected cells
T2 sequence (P21731 1-343): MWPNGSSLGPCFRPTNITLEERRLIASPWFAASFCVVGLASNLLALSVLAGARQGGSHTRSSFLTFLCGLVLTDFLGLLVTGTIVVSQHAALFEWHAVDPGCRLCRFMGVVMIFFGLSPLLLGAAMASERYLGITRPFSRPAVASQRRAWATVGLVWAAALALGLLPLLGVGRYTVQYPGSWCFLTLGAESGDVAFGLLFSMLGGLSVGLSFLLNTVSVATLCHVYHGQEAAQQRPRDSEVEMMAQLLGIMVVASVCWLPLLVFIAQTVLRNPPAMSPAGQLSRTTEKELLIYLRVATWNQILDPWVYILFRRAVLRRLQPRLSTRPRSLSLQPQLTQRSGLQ
In short: (§1)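 HEK-293 EBNA stable lines; EP2 co-expressed with chimeric Gqs, EP1/IP/TP with no exogenous G protein. Fluo-4AM-loaded cells pretreated 4.5 min at 37 °C with compound (0.1–30 μM; TP 0.067–1 μM), then standard agonist (PGE2, cicaprost, U-46619) 10^−11–10^−5 M (TP 10^−12–10^−6 M); peak fluorescence read 3.5 min, nonlinear regression.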

[3] = target: T3, human prostanoid IP receptor (Homo sapiens, UniProt P43119); assay: FLIPR Ca2+ signaling PG antagonist assay, IP stable cell line; conditions: HEK-293 EBNA cells, human recombinant IP, no exogenous G-protein; standard agonist Cicaprost
T3 construct: expressed in transfected cells
In short: as §1

T3 sequence (P43119 whole entry): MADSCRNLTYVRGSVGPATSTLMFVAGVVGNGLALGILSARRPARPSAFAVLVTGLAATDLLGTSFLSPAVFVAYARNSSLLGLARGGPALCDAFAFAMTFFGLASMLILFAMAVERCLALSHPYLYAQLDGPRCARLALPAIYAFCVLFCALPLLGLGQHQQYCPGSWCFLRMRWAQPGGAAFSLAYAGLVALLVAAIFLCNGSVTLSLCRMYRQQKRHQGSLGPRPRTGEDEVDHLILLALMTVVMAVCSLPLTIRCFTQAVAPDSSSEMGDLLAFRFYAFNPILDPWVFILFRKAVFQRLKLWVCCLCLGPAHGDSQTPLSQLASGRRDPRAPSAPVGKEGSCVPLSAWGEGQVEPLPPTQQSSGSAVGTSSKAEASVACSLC

SMILES | Kb [1] [µM] | Kb [2] [nM] | Kb [3] [µM]
CC(C)COc1ccc(OC(F)(F)F)cc1Cn1ccc2cc(C(=O)O)cnc21 [Example 74, 1-(2-Isobutoxy-5-Trifluoromethoxy-Benzyl)-1H-Pyrrolo[2,3-B]Pyridine-5-Carboxylic Acid] | 2.8 | 20 | 1.4
Cc1cn(Cc2cc(OC(F)(F)F)ccc2OCC(C)C)c2ccc(C(=O)O)cc12 [Example 75, 1-(2-Isobutoxy-5-Trifluoromethoxy-Benzyl)-3-Methyl-1H-Indole-5-Carboxylic Acid] | ≥ 10 | 300 | 4.4
CCC(CC)COc1ccc(OC(F)(F)F)cc1Cn1cc(C)c2cc(C(=O)O)ccc21 [Example 77, 1-[2-(2-Ethyl-Butoxy)-5-Trifluoromethoxy-Benzyl]-3-Methyl-1H-Indole-5-Carboxylic Acid] | ≥ 10 | 1100 | ≥ 10
CCC(CC)COc1ccc(Br)cc1Cn1cnc2cc(C(=O)O)ccc21 [Example 78, 1-[5-Bromo-2-(2-Ethyl-Butoxy)-Benzyl]-1H-Benzoimidazole-5-Carboxylic Acid] | ≥ 10 | 16 | 3
CC(C)COc1ccc(Br)cc1Cn1cnc2cc(C(=O)O)ccc21 [Example 79, 1-(5-Bromo-2-Isobutoxy-Benzyl)-1H-Benzoimidazole-5-Carboxylic Acid] | 8.7 | 8 | 7
